{"source": "patent US20260286306A1", "about": "“Culture Medium, Production Method, and Cell Preparation19155704” (National University Corporation Kumamoto University, priority 2023, published 2026)", "key": {"recipient mouse": {"system": "recipient mouse", "experiment": "transplantation of cultured cell groups into a recipient mouse, proportion of donor-derived cells", "format": "in vivo", "experimental": "Mouse EPCR High cells were cultured for 4 days under the normal culture conditions or in the presence of R162, and 50 cells of each of an EPCR High cell group (Control) generated under the normal culture conditions, an EPCR Low cell group (Control), and an EPCR High cell group (R162) amplified in the presence of R162 were aliquoted and then transplanted into a recipient mouse. Then, after 4 weeks and 12 weeks, the proportion of cells derived from donor cells in the peripheral blood was examined.\nFurther, the EPCR High cells were cultured for 4 days under the normal culture conditions and cultured for 4 days in the presence of R162, and the EPCR High cell group generated under the normal culture conditions, the EPCR Low cell group, and the EPCR High cell group (R162) amplified in the presence of R162 were each transplanted into a recipient mouse. Then, 20 weeks later, the proportion of cells derived from donor cells was examined in the peripheral blood and the hematopoietic stem cell fraction in the bone marrow (L-ESLAM (BM))."}, "[1]": {"system": "Human CD34+ bone marrow cells", "experiment": "culture of human CD34+ bone marrow cells for 7 days, total cell number and flow cytometry", "format": "cell-based", "details": "R162 30 μM", "experimental": "Human CD34^+ bone marrow cells (10,000 cells) were cultured for 7 days under normal culture conditions or in the presence of a glutamate dehydrogenase inhibitor R162 (30 μM), and then the total number of cells was analyzed. Then, the proportion of hematopoietic stem cells (lineage: CD34+CD38−CD90+cells) was analyzed using a flow cytometer, and from the results, the number of stem cells was estimated. FIG. 13 and FIG. 14 show the results. As shown in FIG. 14(A), it has been confirmed that the total number of cells is not changed by the presence of R162 as compared with the control, whereas as shown in FIG. 14(B), the ratio of stem cells after culturing is increased by the presence of R162.\nThe culture medium used for the ex vivo culture of human CD34+ bone marrow cells is a culture medium obtained by adding, to the RPMI medium, L-Alanin (4.45 mg/L), Zinc Sulfate Heptahydrate (0.432 mg/L), Cupric Sulfate Pentahydrate (0.0013 mg/L), Ferric Nitrate Nonahydrate (0.05 mg/L), Ferrous Sulfate Heptahydrate (0.417 mg/L), Linoleic acid (0.042 mg/L), Hypoxanthine (2.1 mg/L), Putrescine+2HCL (0.081 mg/L), Thioctic Acid (0.105 mg/L), Thymidine (0.365 mg/L), Sodium Pyruvate (55 mg/L), HEPES (1 mM), a penicillin-streptomycin mixed solution (Nacalai Tesque, Inc.: 26253-84) (1/100 capacity), Insulin-Transferrin-Selenium-Ethanolamine (Thermo Fisher Scientific, Inc.: 51500056) (1/100 capacity), and AlbuMAXtm I Lipid-Rich BSA (Thermo Fisher Scientific, Inc.: 11020021) (2%)."}, "[2]": {"system": "EPCR High cell group (hematopoietic stem cells)", "experiment": "ex vivo culture of mouse EPCR High cell group for 4 days, flow cytometry and cell count", "format": "cell-based", "details": "for proportion of EPCR High in hematopoietic stem cells (EPCR High phenotype): flow cytometry; for number of cells compared with the control: 4 days culture, FIG. 7(B)", "from_the_text": "The expression of c-kit and EPCR in a hematopoietic stem cell fraction (lineage: CD150+, CD48−) isolated from a mouse by using flow cytometry was checked. Among the c-kit-positive and EPCR-positive cells, a cell group of the top 30% of the EPCR-positive cells was defined as an EPCR High cell group, and a cell group of the bottom 30% of the EPCR-positive cells was defined as an EPCR Low cell group (see FIG. 1). Each cell group was transplanted into a recipient mouse, and 20 weeks later, the proportion of cells derived from the transplanted stem cells was examined in the peripheral blood (PB). In addition, at the same time, the proportion of cells derived from the transplanted stem cells was examined in the hematopoietic stem cell fraction (L-ESLAM) in the bone marrow after 20 weeks of the transplantation. The experiment was carried out twice.\nAs shown in FIG. 5(A), α-ketoglutaric acid (αKG), which is an intermediate metabolite of the TCA cycle, is also produced from glutamic acid or the like, and then it is supplied to the TCA cycle. In addition, in the production of a-ketoglutaric acid from glutamic acid, two pathways of a transaminase pathway and a glutamate dehydrogenase pathway are used (see FIG. 5(B)). Therefore, the proportion of EPCR High in hematopoietic stem cells was determined in a case where the EPCR High cell group was cultured for 4 days by adding each of an inhibitor R162 (30 μM) of glutamate dehydrogenase and an inhibitor aminooxyacetic acid (AOA) (50 μM) of transaminase to the culture medium, and in a case where the content of […], which is the source of glutamic acid synthesis, was set to 1/100 (0.02 mM) in FIG. 5(A) (Low Neu.).\nThe above-described mouse EPCR High cell group was cultured for 4 days by adding EGCG (50 μM), which is another glutamate dehydrogenase inhibitor, to a culture medium."}}}
{"compound": "C=CCc1ccc2c(c1O)C(=O)c1ccccc1C2=O", "note": "[R162, 2-allyl-1-hydroxy-9,10-anthraquinone]", "values": [{"measurement": "proportion of cells derived from donor cells in the peripheral blood (ability to reconstruct hematopoietic tissue)", "setting": "recipient mouse; 50 EPCR High cells amplified 4 days in the presence of R162, transplanted, 4 weeks and 12 weeks, FIG. 8", "result": "high ability to reconstruct hematopoietic tissue, which is equivalent to the EPCR High cell group (Control)"}, {"measurement": "proportion of cells derived from donor cells in peripheral blood and bone marrow hematopoietic stem cell fraction (L-ESLAM (BM))", "setting": "recipient mouse; EPCR High cells amplified 4 days in the presence of R162, transplanted, 20 weeks, vs EPCR High and EPCR Low (Control), FIG. 12", "result": "high ability to maintain the reconstructed hematopoiesis for a longer period of time"}, {"measurement": "total number of cells compared with the control", "setting": "[1]; 7 days, 10,000 cells seeded, FIG. 14(A)", "result": "not changed"}, {"measurement": "ratio of stem cells (CD34+CD38−CD90+ cells) after culturing", "setting": "[1]; 7 days, flow cytometer, FIG. 14(B)", "result": "increased"}, {"measurement": "number of stem cells compared with normal culture conditions", "setting": "[1]; 7 days, estimated from total cell number and stem cell proportion", "result": "number of stem cells is increased"}, {"measurement": "fold induction at 30 µM", "setting": "[2]; Mus musculus, Hematopoietic stem cell, 96 h, culture in the presence of R162 (30 μM), 4 days, read-out: increase in number of cells having the EPCR High phenotype compared with normal culture conditions", "result": "~2"}, {"measurement": "proportion of EPCR High in hematopoietic stem cells (EPCR High phenotype)", "setting": "[2]; R162 30 μM in culture medium, 4 days, FIG. 6/7(A)", "result": "phenotype of EPCR High is maintained"}, {"measurement": "number of cells compared with the control", "setting": "[2]; R162 30 μM", "result": "about the same level as that of the control"}]}
{"compound": "NOCC(=O)O", "note": "[AOA, aminooxyacetic acid]", "values": [{"measurement": "number of cells compared with the control", "setting": "[2]; AOA 50 μM", "result": "significantly reduced"}]}
{"compound": "O=C(O[C@@H]1Cc2c(O)cc(O)cc2O[C@@H]1c1cc(O)c(O)c(O)c1)c1cc(O)c(O)c(O)c1", "note": "[EGCG, epigallo catechin-3-gallate]", "values": [{"measurement": "proportion of EPCR High in hematopoietic stem cells (EPCR High phenotype)", "setting": "[2]; EGCG 50 μM in culture medium, 4 days, FIG. 15", "result": "phenotype of EPCR High is maintained"}]}
